From ChEMBL document CHEMBL1909046, “DrugMatrix in vitro pharmacology data”
*1 amine or outer side, *2 acyl side, *3 side chain or, on linkers, in order; H or OH if unused. Where a SMILES comes first, the peptide text is derived from it. Bridges are numbered along the chain shown (N, C = ends). Roman numbers before positions name the chains, in order. [ ]: non-standard residue; d: D form. Actinocin(1to9) = Cc1c2oc3c(C)ccc(C(=O)[*:2])c3nc-2c(C(=O)[*:1])c(N)c1=O; NMeV = CN[C@H](C(=O)O)C(C)C; Sar = CNCC(=O)O

Key:
[1] = molecular target: Tyrosine-protein kinase Lck (Homo sapiens, UniProt P06239); assay: DRUGMATRIX: Protein Tyrosine Kinase, LCK enzyme inhibition (substrate: Poly(Glu:Tyr)); format: cell-based, Insect cells; conditions: Not Active = under 50% inhibition at 10 µM
[2] = molecular target: Receptor tyrosine-protein kinase erbB-2 (Homo sapiens, UniProt P04626); assay: biochemical; format: cell-based, Insect cells;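 also: inhibition of HER2 kinase enzyme activity, measured with Poly(Glu:Tyr) as the phosphorylation substrate; in other assays of this panel Not Active means under 50% inhibition at 10 µM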
[3] = molecular target: T1, 3-hydroxy-3-methylglutaryl-coenzyme A reductase (Homo sapiens, UniProt P04035); parameters: species or system Escherichia coli;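 also: enzyme inhibition assay of HMG-CoA reductase using radiolabeled [14C]HMG-CoA as substrate; in other assays of this panel Not Active means under 50% inhibition at 10 µM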
T1 sequence (P04035 whole entry): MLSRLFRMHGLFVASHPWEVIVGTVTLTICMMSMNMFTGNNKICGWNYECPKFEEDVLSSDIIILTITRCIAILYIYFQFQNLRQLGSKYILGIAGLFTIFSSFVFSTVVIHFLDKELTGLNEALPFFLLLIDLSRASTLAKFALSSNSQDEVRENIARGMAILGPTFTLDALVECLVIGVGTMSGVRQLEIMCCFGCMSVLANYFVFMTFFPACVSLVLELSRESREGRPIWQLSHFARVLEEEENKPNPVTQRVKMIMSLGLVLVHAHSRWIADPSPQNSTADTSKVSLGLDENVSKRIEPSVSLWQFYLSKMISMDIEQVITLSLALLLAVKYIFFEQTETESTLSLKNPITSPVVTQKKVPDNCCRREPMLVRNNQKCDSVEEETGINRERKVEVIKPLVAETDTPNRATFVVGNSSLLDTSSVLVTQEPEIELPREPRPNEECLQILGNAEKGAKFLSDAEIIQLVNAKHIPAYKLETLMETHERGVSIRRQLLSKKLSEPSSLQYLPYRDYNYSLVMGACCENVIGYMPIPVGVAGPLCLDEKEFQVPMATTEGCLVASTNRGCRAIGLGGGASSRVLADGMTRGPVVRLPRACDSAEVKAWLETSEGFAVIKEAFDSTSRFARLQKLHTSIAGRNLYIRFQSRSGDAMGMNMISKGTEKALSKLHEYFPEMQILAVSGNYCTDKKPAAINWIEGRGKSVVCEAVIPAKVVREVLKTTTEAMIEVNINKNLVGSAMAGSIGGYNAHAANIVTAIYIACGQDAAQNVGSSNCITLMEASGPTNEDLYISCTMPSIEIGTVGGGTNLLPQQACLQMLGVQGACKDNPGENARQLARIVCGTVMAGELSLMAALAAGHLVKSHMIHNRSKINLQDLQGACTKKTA

[4] = molecular target: Sodium-dependent dopamine transporter (Homo sapiens, UniProt Q01959); assay: DRUGMATRIX: Dopamine Transporter radioligand binding (ligand: [125I] RTI-55); format: cell membranes, CHO-K1, Membrane; conditions: Not Active = under 50% inhibition at 10 µM
[5] = molecular target: T2, Alpha-1D adrenergic receptor (Homo sapiens, UniProt P25100); format: cell membranes, HEK293, Membrane; conditions: for Ki: read-out: Ki; as to all read-outs here: in other assays of this panel Not Active means under 50% inhibition at 10 µM
T2 sequence (P25100 whole entry): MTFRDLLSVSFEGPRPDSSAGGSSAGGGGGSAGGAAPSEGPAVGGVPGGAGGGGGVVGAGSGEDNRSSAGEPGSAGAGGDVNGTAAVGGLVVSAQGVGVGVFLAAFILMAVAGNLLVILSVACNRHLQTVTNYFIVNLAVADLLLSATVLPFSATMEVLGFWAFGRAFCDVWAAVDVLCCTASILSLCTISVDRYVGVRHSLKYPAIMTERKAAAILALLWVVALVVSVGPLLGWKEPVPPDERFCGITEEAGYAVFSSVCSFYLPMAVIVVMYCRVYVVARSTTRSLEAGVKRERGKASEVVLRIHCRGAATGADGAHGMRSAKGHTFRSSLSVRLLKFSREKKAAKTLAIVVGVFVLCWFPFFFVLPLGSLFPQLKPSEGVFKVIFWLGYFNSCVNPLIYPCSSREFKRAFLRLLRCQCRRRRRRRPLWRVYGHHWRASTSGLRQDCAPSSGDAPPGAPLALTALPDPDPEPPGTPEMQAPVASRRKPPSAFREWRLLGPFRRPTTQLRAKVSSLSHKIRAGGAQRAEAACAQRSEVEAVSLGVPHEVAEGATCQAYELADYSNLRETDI

Sequence of Sodium-dependent dopamine transporter (Q01959 whole entry): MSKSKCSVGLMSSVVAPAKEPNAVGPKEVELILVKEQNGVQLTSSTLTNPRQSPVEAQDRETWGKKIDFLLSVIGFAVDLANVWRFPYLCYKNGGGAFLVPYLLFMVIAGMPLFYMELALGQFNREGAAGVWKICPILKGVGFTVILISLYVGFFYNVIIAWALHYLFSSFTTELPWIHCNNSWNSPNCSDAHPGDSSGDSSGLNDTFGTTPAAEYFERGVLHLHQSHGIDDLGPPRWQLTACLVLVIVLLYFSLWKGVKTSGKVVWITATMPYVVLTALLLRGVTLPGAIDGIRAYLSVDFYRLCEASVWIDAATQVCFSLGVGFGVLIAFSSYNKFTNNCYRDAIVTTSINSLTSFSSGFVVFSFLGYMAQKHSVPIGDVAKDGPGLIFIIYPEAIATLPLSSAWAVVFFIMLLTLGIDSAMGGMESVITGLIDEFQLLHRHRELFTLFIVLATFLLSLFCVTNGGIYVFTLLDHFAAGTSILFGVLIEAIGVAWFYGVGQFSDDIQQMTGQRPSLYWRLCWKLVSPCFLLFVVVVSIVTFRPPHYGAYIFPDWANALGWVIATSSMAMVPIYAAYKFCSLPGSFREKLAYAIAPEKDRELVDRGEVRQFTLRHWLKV
Sequence of Receptor tyrosine-protein kinase erbB-2 (P04626 whole entry): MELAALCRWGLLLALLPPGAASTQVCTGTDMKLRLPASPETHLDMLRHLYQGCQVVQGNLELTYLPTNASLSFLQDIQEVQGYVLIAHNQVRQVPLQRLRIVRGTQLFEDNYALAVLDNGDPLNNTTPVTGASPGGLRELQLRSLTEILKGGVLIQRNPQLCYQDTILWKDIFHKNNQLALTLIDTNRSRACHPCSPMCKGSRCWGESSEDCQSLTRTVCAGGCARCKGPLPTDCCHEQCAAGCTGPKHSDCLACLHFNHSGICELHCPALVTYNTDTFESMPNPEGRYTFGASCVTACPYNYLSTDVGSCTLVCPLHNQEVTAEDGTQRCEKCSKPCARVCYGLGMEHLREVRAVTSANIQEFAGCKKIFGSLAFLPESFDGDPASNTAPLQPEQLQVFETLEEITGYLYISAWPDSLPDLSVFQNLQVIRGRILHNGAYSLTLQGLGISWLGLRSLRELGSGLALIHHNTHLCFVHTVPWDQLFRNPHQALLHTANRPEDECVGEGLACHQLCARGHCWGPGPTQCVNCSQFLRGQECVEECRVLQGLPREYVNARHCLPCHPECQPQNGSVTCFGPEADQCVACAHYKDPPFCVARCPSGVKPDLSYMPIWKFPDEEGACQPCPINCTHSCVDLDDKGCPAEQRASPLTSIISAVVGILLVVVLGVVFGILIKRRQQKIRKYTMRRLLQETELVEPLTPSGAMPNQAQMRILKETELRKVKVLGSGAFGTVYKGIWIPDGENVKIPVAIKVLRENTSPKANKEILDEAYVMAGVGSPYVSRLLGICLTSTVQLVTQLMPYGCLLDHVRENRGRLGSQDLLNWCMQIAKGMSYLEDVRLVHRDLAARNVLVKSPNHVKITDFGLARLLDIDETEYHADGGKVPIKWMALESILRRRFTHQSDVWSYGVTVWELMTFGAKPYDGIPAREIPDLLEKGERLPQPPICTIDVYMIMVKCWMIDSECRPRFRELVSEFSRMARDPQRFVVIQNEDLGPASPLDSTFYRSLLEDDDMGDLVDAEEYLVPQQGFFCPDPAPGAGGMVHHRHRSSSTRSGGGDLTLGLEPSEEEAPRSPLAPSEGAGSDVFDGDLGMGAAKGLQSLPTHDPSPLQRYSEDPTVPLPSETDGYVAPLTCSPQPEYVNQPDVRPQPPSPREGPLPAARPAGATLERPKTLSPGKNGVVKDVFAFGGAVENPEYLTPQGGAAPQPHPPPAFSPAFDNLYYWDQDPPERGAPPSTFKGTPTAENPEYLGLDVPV
Sequence of Tyrosine-protein kinase Lck (P06239 whole entry): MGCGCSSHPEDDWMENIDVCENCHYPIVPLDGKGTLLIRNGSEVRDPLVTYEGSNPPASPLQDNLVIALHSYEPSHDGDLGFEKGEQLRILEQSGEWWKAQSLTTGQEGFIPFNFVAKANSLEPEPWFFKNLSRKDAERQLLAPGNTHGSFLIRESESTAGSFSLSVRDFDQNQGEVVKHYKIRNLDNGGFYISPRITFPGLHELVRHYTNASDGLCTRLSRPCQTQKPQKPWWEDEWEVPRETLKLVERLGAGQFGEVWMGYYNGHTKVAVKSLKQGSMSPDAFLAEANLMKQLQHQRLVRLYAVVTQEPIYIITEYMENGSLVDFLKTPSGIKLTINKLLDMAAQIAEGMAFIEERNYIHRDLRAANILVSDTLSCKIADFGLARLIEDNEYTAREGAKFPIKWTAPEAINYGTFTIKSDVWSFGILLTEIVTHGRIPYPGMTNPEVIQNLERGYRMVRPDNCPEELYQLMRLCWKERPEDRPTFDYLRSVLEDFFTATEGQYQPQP

SMILES | IC50 ([1]; insect cells) | IC50 ([2]; insect cells) | IC50 [3] | IC50 ([4]; cho-k1) | IC50 ([5]; hek293) | IC50 ([5]; read-out: IC50) [nM] | Ki [5] [nM] | IC50 ([1]; read-out: IC50) [nM] | IC50 ([2]; read-out: IC50) [nM] | IC50 ([4]; read-out: IC50) [nM] | Ki ([4]; read-out: Ki) [nM]
Cc1cc(C2CCCCC2)n(O)c(=O)c1 [CICLOPIROX] | Not Active | Not Active | Not Active | Not Active | Not Active | – | – | – | – | – | –
CC1=C2C(=CO[C@H](C)[C@H]2C)C(O)=C(C(=O)O)C1=O [CITRININ] | Not Active | Not Active | Not Active | Not Active | Not Active | – | – | – | – | – | –
CC(C)(C)NCC(O)c1cc(Cl)c(N)c(Cl)c1 (stereo not drawn) [CLENBUTEROL] | Not Active | Not Active | Not Active | Not Active | Not Active | – | – | – | – | – | –
CC(C)(Oc1ccc(Cl)cc1)C(=O)O [CLOFIBRIC ACID] | Not Active | Not Active | Not Active | Not Active | Not Active | – | – | – | – | – | –
Clc1cccc(Cl)c1NC1=NCCN1 [CLONIDINE] | Not Active | Not Active | Not Active | Not Active | – | 1210 | 595 | – | – | – | –
Cc1cc(C(C#N)c2ccc(Cl)cc2)c(Cl)cc1NC(=O)c1cc(I)cc(I)c1O (stereo not drawn) [CLOSANTEL] | – | – | Not Active | – | Not Active | – | – | 1250 | 2470 | 4800 | 3800
Cc1onc(-c2ccccc2Cl)c1C(=O)N[C@@H]1C(=O)N2[C@@H]1SC(C)(C)[C@@H]2C(=O)O [CLOXACILLIN] | Not Active | Not Active | Not Active | Not Active | Not Active | – | – | – | – | – | –
CC1CC(OC(=O)C(O)c2ccccc2)CC(C)(C)C1 (stereo not drawn) [CYCLANDELATE] | Not Active | Not Active | Not Active | Not Active | Not Active | – | – | – | – | – | –
Cc1c2oc3c(C)ccc(C(=O)N[C@@H]4C(=O)N[C@H](C(C)C)C(=O)N5CCC[C@H]5C(=O)N(C)CC(=O)N(C)[C@@H](C(C)C)C(=O)O[C@@H]4C)c3nc-2c(C(=O)N[C@@H]2C(=O)N[C@H](C(C)C)C(=O)N3CCC[C@H]3C(=O)N(C)CC(=O)N(C)[C@@H](C(C)C)C(=O)O[C@@H]2C)c(N)c1=O [DACTINOMYCIN] (I: T[dV]P[Sar][NMeV] / II: T[dV]P[Sar][NMeV]; ester I:1-I:C, II:1-II:C; linker I:N-II:N via Actinocin(1to9)) | Not Active | Not Active | Not Active | Not Active | Not Active | – | – | – | – | – | –
Cc1c(O)c(=O)ccn1C [DEFERIPRONE] | Not Active | Not Active | Not Active | Not Active | Not Active | – | – | – | – | – | –
O=c1oc2ccccc2c(O)c1Cc1c(O)c2ccccc2oc1=O [DICUMAROL] | Not Active | Not Active | Not Active | Not Active | Not Active | – | – | – | – | – | –
C[C@H]1O[C@@H](O[C@H]2[C@@H](O)C[C@H](O[C@H]3[C@@H](O)C[C@H](O[C@H]4CC[C@@]5(C)[C@H](CC[C@@H]6[C@@H]5C[C@@H](O)[C@]5(C)[C@@H](C7=CC(=O)OC7)CC[C@]65O)C4)O[C@@H]3C)O[C@@H]2C)C[C@H](O)[C@@H]1O [DIGOXIN] | Not Active | Not Active | Not Active | Not Active | Not Active | – | – | – | – | – | –
CC(C)[C@@]1(NC(=O)[C@@H]2C[C@@H]3c4cccc5[nH]cc(c45)C[C@H]3N(C)C2)O[C@@]2(O)[C@@H]3CCCN3C(=O)[C@H](Cc3ccccc3)N2C1=O.CS(=O)(=O)O [DIHYDROERGOCRISTINE MESYLATE] | Not Active | Not Active | Not Active | Not Active | – | 7.37 | 3.62 | – | – | – | –
CC(=O)O[C@@]12CO[C@@H]1C[C@H](O)[C@@]1(C)C(=O)[C@H](O)C3=C(C)[C@@H](OC(=O)[C@H](O)[C@@H](NC(=O)OC(C)(C)C)c4ccccc4)C[C@@](O)([C@@H](OC(=O)c4ccccc4)[C@H]21)C3(C)C.O.O.O [DOCETAXEL] | Not Active | Not Active | Not Active | Not Active | Not Active | – | – | – | – | – | –
